# Like-named read-outs stand apart in the source and are kept apart here.
# Tests used:
# [1] = tested on: L. salmonis; test: Field well boat treatment, pre- vs post-treatment sea lice counts (Example 4); type: in vivo; conditions: 20 ppm, 60 minutes, 30 fish per pen, within 24 hours after treatment, pens A-D
# Protocol: (§1) The effectiveness of imidacloprid against pre-adult and adult stages of L. salmonis and Caligus sp. infections on farmed Atlantic salmon was investigated by performing pre- and post-treatment sea lice counts on salmon undergoing a treatment with imidacloprid. This trial was conducted at a commercial salmon farm in Norway. The salmon were pumped onto a well boat and were exposed to 20 ppm imidacloprid for 60 minutes. The average weight of the salmon was 3.5 kg and the average number of salmon per pen was 180,000. 30 fish per pen were assessed for L. salmonis and Caligus sp., and the number of each L. salmonis life stage found was recorded. This was performed within 24 hours prior to treatment, and within 24 hours after treatment.
# These assessments were made on four pens of salmon in total. Prior to treatment, fish were crowded within the pen to enable them to be pumped into the well boat, which is where the pre-treatment sea lice assessments were conducted. The post-treatment sea lice assessments were made by removing fish from the outflow pipe on the well boat.
# At all time points, 3 fish were removed and placed into an anaesthetic bath. This was repeated 10 times until 30 fish had been assessed.
# (§2) The numbers of sea lice observed per fish for this trial for each of the four tested pens according to sea lice life cycle state, pre- or post-administration of active are presented in Table 5.
# [2] = tested on: Lepeophtheirus salmonis; test: Immersion treatment of sea lice-challenged salmon in tanks, 1 or 6 weeks post challenge (Example 1); type: in vivo
# From the text: Eight flow-through treatment tanks each containing 15 fish were set up. The fish were Salmon (Salmo salar) having an average weight of approximately 270 g and of mixed sex. Egg strings removed from ovigerous female Lepeophtheirus salmonis were collected and cultured until infective copepodids were produced. Eight bottles containing approximately 330-350 copepodids were each randomly allocated to a treatment tank (to provide an average of 22 lice per fish).
# In preparation for the challenge, water flows in the tanks were stopped and light levels reduced. The lice were then added to each tank and the tanks maintained in total darkness for 6 hours after which light levels were raised and the water flow resumed.
# The fish were challenged with sea lice for either one week or for six weeks.
# One week after the sea lice challenge, fish in three of the tanks were treated with either 10 ppm w/v, 30 ppm w/v or 50 ppm w/v imidacloprid. One of the tanks was treated with 0.03% DMSO and another tank sham treated with sea water as controls.
# For each treatment tank, the appropriate amount of imidacloprid (see Table 1) was dissolved in 100 ml of DMSO and mixed with approximately 900 ml of sea water from the experimental tank to obtain a treatment solution. The water flow on the experimental tanks was disabled and the treatment solution was then added.
# Fish were exposed for 60 minutes in static water with full aeration and observed during the exposure period. At the end of the exposure period the water was rapidly drained to approximately ⅓ volume, before the flows were resumed in the tanks.
# Six weeks after the fish were challenged with sea lice, the fish in the three remaining treatment tanks were treated with either 10 ppm w/v, 30 ppm w/v or 50 ppm w/v imidacloprid. The treatment was carried out in the same way as for the treatment tanks one week post challenge (see 1.2.1).
# Eight weeks after the fish were challenged with sea lice, the study was terminated. Fish were over anaesthetised in MS222 (tricaine methanesulfonate) and pithed using an Iki Jime tool.
# The length and weight of each fish and external symptoms were recorded. All lice were removed from each fish and note made of sex and stage of development. The lice were stored in ethanol and sex and stage confirmed using stereo microscope.
# The data is expressed as prevalence and abundance. Prevalence is defined as the number of hosts infected with one of more individuals of a parasite species divided by the number of hosts examined (including infected and uninfected hosts) and expressed as a percentage.
# [3] = tested on: Atlantic salmon; test: Fish mortality and behaviour during bath treatment (Example 7); type: in vivo; conditions: 20 ppm to 200 ppm, 3 to 60 minutes
# Protocol: To determine the concentration- and time-dependence of imidacloprid treatment in vivo, Atlantic salmon (average of 320.9 g) were challenged with imidacloprid in seawater ([…] salinity) at 12° C. The water level in the tank was lowered and aeration was employed during administration of the active. The salmon louse copepodid culture was counted and adjusted to obtain a target level of around 40 copepodids per fish in the challenge tank at each challenge time point.
# Fish behaviour/appearance was assessed in vivo during each test. Any changes in behaviour and/or appearance including mortality were recorded.
# [4] = tested on: farmed Atlantic salmon; test: Observation of fish during field well boat treatment (Example 4); type: in vivo; conditions: 20 ppm, 60 minutes
# Protocol: as §1, §2
# [5] = tested on: pre-adult and adult sea lice; test: Timescale of effect on sea lice on killed salmon suspended in treatment water (Example 5)
# Protocol: To determine the timescale of the effect of imidacloprid, salmon infected with pre-adult and adult sea lice were removed from a stock tank and killed using a sharp blow to the head.
# For fish exposed to 0 ppm imidacloprid (negative controls), observations were made for 60 minutes. […] Three fish per treatment group were tested.
# Observations on the time at which lice left the host, and the sex and stage of the sea louse was noted. Any lice that left the host were transferred to clean sea water immediately. Furthermore, any lice remaining on the host at the end of the exposure period were removed from the host and transferred to clean sea water.
# Lice were observed both shortly after and approximately 2 hours after the end of the exposure period.
# The ratio of male to female sea lice was around 50:50. The water temperature was around 12° C.
# [6] = tested on: Lepeophtheirus salmonis; conditions: 20 ppm (nitenpyram 19 ppm); for percentage responsiveness for sea lice recovered from fish at the end of the treatment period: 24 h post-treatment; for percentage responsiveness of lice recovered from tank at treatment end at 24 hours post-treatment: lice knocked off fish
# Protocol: Lice were monitored continuously for the duration of the exposure and behavioural observations noted, including detachment of lice from fish. At the end of exposure lice were either removed from the tank or fish, placed into small vented plastic screw-top containers (125 mL, LDPE, 25 mm hole drilled into lid and secured with 200 μm mesh), and transferred to a clean tank supplied with filtered sea water and held there for 24 h. Lice which had detached from fish were kept separate from those that had not detached.
# 24 h post-treatment lice were removed from the screw-top containers to check if they were alive and, if so, if they were responsive. Categories were defined as follows: alive—movement detected; responsive—alive and actively avoids stimulation in a coordinated manner; dead—no movement detected.
# Lice defined as responsive could potentially re-attach to a fish. After assessment lice were transferred to 70% alcohol in case determination of instar and sex was required.
structure (smiles),measurement,setting,value
O=[N+]([O-])NC1=NCCN1Cc1ccc(Cl)nc1 [imidacloprid],"Post-treatment sea lice count, Adult Female",[1],0.0 sea lice per fish
same,"Post-treatment sea lice count, Adult Male",[1],0.0 sea lice per fish
same,"Post-treatment sea lice count, Gravid Female",[1],0.0 sea lice per fish
same,"Post-treatment sea lice count, Pre-Adult Female",[1],0.0 sea lice per fish
same,"Post-treatment sea lice count, Pre-Adult Male",[1],0.0 sea lice per fish
same,"Post-treatment sea lice count, Total",[1],0.0 sea lice per fish
same,Overall lice abundances compared with the DMSO control,"[2]; 10, 30 or 50 ppm w/v, treated one week post challenge",No significant differences
same,Time after addition at which no fish were visibly infected with lice,"[2]; 30 ppm w/v, treated 6 weeks post challenge",59 min
same,Lesions associated with feeding and attachment of lice,"[2]; 30 ppm w/v, two days post-treatment",almost completely resolved
same,Time after addition at which no lice were visible on the fish,"[2]; 50 ppm w/v, treated 6 weeks post challenge",81 min
same,Lesions associated with feeding and attachment of lice,"[2]; 50 ppm w/v, two days post treatment",almost completely resolved
same,Fish mortality in the trial,[3],No fish died
same,Fish behaviour observed throughout treatment,[4],no adverse behaviours seen
same,Lice considered dead at 30 minutes post-exposure,"[5]; 20 mg/L, of 49 lice exposed",two
same,Lice considered dead at 2 hours p.e.,[5]; 50 ppm,14
same,Lice considered dead at 30 minutes,"[5]; 50 ppm, of 21 lice exposed",four
same,Lice considered dead at 2 hours p.e.,[5]; 100 ppm,17/28
same,Lice considered dead at the end of the exposure period,"[5]; 100 ppm, of 28 lice exposed",four
same,Lice considered dead 2 hours post-exposure,"[5]; 200 ppm, of 26 lice exposed",Six
same,Lice considered dead at the end of the exposure period,"[5]; 200 ppm, of 26 lice exposed",four
same,Lice considered dead 30 minutes p.e.,[5]; 500 ppm,Six out of 20
same,Lice considered dead at 2 hours p.e.,[5]; 500 ppm,15/20
same,Lice that left the host within the first 9 minutes,"[5]; 500 ppm, dead host, around 12° C.",around 70%
same,Lice that left the host within the first 15 minutes,"[5]; between 20 and 200 ppm, dead host, around 12° C.",around 50%
same,percentage responsiveness for sea lice recovered from fish at the end of the treatment period,[6]; exposure 5 min,100%
same,percentage responsiveness for sea lice recovered from fish at the end of the treatment period,[6]; exposure 10 min,100%
same,percentage responsiveness of lice recovered from tank at treatment end at 24 hours post-treatment,[6]; exposure 10 min,100%
same,percentage responsiveness for sea lice recovered from fish at the end of the treatment period,[6]; exposure 15 min,45%
same,percentage responsiveness of lice recovered from tank at treatment end at 24 hours post-treatment,[6]; exposure 15 min,33%
same,percentage responsiveness for sea lice recovered from fish at the end of the treatment period,[6]; exposure 30 min,50%
same,percentage responsiveness of lice recovered from tank at treatment end at 24 hours post-treatment,[6]; exposure 30 min,10%
same,percentage responsiveness for sea lice recovered from fish at the end of the treatment period,[6]; exposure 60 min,no lice responsive
same,percentage responsiveness for sea lice recovered from fish at the end of the treatment period,"[6]; exposure 60 min, listed as Imidacloprid",0%
same,percentage responsiveness of lice recovered from tank at treatment end at 24 hours post-treatment,[6]; exposure 60 min,0%
